Reference: ChEMBL document CHEMBL1141318, “Cytotoxic lignans from the stem bark of Magnolia officinalis” (J Nat Prod, 2007)
Converted amounts (≈) assume the structure as drawn.

Columns and labels:
Assay type in all cases: functional, cell-based
[1] = tested on: K562; test: Cytotoxicity against human K562 cells by MTT assay
[2] = tested on: HeLa; test: Cytotoxicity against human HeLa cells by MTT assay
[3] = tested on: A549; test: Cytotoxicity against human A549 cells by MTT assay

Row | SMILES | IC50 [1] [µg/mL] | IC50 [2] [µg/mL] | IC50 [3] [µg/mL]
1 | C=CCc1ccc(O)c(-c2ccc(O)c(CC=C)c2)c1 [HONOKIOL] | > 5 | > 5 | > 5
2 | COc1cc(/C=C/C=O)cc(OC)c1O[C@@H]1O[C@H](CO)[C@@H](O)[C@H](O)[C@H]1O [SINAPALDEHYDE GLUCOSIDE] | > 5 | > 5 | > 5
3 | C=CCc1cc(-c2cc(/C=C/C=O)ccc2O)ccc1O [MAGNALEDEHYDE B] | > 5 | > 5 | > 5
4 | COc1cccc2c1C(=O)c1c(O)c3c(c(O)c1C2=O)C[C@@](O)(C(=O)CO)C[C@@H]3O[C@H]1C[C@H](N)[C@H](O)[C@H](C)O1 [DOXORUBICIN] | 1.41 (≈ 2.59 µM) | 0.8 (≈ 1.47 µM) | 1.2 (≈ 2.21 µM)
5 | C=CCc1cc(-c2cc(/C=C/C=O)ccc2O)ccc1OC [4'-METHOXYMAGNALEDEHYDE B] | > 5 | > 5 | > 5
6 | C=CCc1ccc(O)c(-c2ccc(OC)c(CC=C)c2)c1 [METHYLHONOKIOL] | > 5 | > 5 | > 5
7 | COc1cc(/C=C/CO)cc(OC)c1O[C@@H]1O[C@H](CO)[C@@H](O)[C@H](O)[C@H]1O [SYRINGIN] | > 5 | > 5 | > 5
8 | C=CCc1cc(-c2cc(C=O)ccc2O)ccc1O [MAGNALEDEHYDE E] | > 5 | > 5 | > 5
9 | C=CCc1cc(-c2cc(C=O)ccc2O)ccc1OC | > 5 | > 5 | > 5
10 | C=CCc1ccc(O)c(-c2cc(CC=C)ccc2O)c1 [MAGNOLOL] | > 5 | > 5 | > 5
11 | COc1ccc(-c2cc(/C=C/C=O)ccc2O)cc1/C=C/C=O | 3.7 (≈ 12 µM) | 3.9 (≈ 12.6 µM) | 1.5 (≈ 4.86 µM)
12 | C=CCc1cc(-c2cc(CC(O)CO)ccc2O)ccc1O (stereo unspecified) [MAGNOLIGNAN] | > 5 | > 5 | > 5
